Reference: US11420966B2 (ACLARIS THERAPEUTICS, INC., priority 2019, dated 2022)

Assays:
JAK1 = JAK1 (Homo sapiens (Human), UniProt P23458); experiment: JAK1 enzyme activity assay (Thermo Fisher SelectScreen, Z-lyte); format: biochemical; conditions: read-out: JAK1 Inhibition IC50
Outline: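 Z-lyte assay with 21.2-91.5 ng JAK and […] Tyr 06 in 50 mM HEPES pH 7.0, 10 mM MgCl2, 1 mM EGTA, 0.01% BRIJ-35; 1 h kinase reaction, then development reagent. 11-point dose-response from […] to 0.34 nM, 2% DMSO vehicle; IC50 from 4-parameter logistic fit of emission ratio.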

[1] = test system: IFNγ stimulated STAT1 phosphorylation on Tyr701 (JAK1/2); experiment: JAK1/2 cellular target modulation: IFNγ stimulated phospho-STAT1 in PBMC; format: cell-based; conditions: human PBMC, IFNγ 10 ng/ml; read-out: Infγ-STAT1 IC50
Outline: (§1)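 Thawed human PBMC (200,000/well, RPMI/10% FBS) were preincubated with compound for 1 h at 37 °C, added from 10× stocks in 1% DMSO. Stimulation and read-out: IL-2 25 ng/ml, 5 min, pSTAT5 by MSD; IL-12 1.7 ng/ml, 25 min, pSTAT4 by MSD; IFNγ 10 ng/ml, 10 min, pSTAT1 by sandwich ELISA.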

[2] = test system: IL-12 stimulated STAT4 phosphorylation on Tyr693 (JAK2/TYK2); experiment: JAK2/TYK2 cellular target modulation: IL-12 stimulated phospho-STAT4 in PBMC; format: cell-based; conditions: human PBMC, IL-12 1.7 ng/ml; read-out: IL12-STAT4 IC50
Outline: as §1

[3] = test system: IL-2 stimulated STAT5 phosphorylation on Tyr694 (JAK1/3); experiment: JAK1/3 cellular target modulation: IL-2 stimulated phospho-STAT5 in PBMC; format: cell-based; conditions: human PBMC, IL-2 25 ng/ml; read-out: IL2-STAT5 IC50
Outline: as §1

Tyk-2 = Tyk-2 (Homo sapiens (Human), UniProt P29597); experiment: Tyk-2 enzyme activity assay (Thermo Fisher SelectScreen, Z-lyte); format: biochemical; conditions: read-out: Tyk-2 Inhibition IC50
Chain of Tyk-2 (P29597 whole entry): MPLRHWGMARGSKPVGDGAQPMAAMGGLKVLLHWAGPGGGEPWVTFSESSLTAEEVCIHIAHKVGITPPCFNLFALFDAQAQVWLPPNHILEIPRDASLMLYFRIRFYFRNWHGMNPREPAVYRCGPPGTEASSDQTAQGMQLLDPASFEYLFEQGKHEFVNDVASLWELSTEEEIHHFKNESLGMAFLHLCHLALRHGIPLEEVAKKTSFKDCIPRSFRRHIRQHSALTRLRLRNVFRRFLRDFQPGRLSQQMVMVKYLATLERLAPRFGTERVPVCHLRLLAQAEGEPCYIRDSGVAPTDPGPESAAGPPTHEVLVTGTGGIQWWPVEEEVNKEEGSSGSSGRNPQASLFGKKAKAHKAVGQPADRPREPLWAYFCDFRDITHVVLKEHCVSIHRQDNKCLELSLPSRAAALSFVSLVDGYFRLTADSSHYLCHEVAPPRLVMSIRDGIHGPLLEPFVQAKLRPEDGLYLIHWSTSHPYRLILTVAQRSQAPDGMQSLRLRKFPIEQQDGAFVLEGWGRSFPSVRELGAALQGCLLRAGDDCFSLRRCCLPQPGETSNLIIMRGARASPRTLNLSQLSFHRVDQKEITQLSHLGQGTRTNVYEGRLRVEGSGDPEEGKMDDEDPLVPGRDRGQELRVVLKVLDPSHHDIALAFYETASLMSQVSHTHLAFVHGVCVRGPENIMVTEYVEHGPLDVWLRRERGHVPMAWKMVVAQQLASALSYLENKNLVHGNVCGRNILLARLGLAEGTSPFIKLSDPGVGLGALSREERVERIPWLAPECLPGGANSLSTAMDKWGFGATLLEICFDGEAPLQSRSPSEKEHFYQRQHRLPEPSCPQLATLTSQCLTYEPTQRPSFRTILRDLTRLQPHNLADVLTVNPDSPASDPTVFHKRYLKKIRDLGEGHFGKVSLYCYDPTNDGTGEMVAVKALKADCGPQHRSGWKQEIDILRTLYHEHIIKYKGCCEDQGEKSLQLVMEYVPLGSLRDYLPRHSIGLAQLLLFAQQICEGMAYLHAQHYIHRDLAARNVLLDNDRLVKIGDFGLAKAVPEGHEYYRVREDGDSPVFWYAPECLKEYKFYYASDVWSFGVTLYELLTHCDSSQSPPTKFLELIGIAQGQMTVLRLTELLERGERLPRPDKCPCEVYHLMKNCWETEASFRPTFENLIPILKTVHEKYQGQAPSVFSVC
Outline: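 Z-lyte FRET assay: 3.75–15 ng TYK2 with […] Tyr 03 peptide in HEPES pH 7.0, MgCl2, EGTA, BRIJ-35; 1 h reaction, then development reagent. 11-point dose-response, 2% DMSO; IC50 via 4-parameter fit of emission ratio, background without enzyme.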

JAK2 = JAK2 (Homo sapiens (Human), UniProt O60674); experiment: JAK2 enzyme activity assay (Thermo Fisher SelectScreen, Z-lyte); format: biochemical; conditions: read-out: JAK2 Inhibition IC50
Chain of JAK2 (O60674 whole entry): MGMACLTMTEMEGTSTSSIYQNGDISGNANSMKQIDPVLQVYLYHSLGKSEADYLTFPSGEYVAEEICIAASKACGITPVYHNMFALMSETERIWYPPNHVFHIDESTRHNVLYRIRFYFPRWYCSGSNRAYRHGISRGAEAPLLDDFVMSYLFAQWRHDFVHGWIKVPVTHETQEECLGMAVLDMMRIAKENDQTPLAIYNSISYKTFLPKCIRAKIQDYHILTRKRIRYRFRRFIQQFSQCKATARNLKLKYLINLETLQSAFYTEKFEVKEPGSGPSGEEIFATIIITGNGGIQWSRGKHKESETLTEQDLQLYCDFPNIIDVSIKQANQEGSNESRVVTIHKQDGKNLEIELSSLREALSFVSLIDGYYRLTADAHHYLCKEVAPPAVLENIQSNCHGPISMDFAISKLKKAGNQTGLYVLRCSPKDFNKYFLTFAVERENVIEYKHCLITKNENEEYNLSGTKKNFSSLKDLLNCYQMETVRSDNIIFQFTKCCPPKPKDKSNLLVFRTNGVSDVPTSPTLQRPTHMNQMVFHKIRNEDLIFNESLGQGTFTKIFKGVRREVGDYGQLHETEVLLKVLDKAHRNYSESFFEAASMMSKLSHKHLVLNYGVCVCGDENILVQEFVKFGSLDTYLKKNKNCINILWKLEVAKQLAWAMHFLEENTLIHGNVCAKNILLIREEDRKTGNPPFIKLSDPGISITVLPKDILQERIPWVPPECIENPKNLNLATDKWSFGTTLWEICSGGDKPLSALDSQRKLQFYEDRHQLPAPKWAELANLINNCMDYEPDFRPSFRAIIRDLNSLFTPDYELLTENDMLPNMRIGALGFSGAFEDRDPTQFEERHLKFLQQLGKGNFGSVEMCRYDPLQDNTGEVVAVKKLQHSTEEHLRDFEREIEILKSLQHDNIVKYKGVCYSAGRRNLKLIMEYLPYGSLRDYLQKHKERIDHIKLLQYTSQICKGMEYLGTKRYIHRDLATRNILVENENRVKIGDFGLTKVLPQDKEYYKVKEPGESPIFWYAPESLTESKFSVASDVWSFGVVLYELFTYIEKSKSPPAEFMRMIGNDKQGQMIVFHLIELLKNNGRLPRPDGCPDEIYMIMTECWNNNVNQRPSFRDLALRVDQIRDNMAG
Outline: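 IC50 values derive from a 4-parameter logistic fit of emission ratio across an 11-point series ([…] to 0.34 nM, 2% DMSO vehicle). Reaction: 1 h, 0.12-0.5 ng JAK2, […] Tyr 06 in HEPES pH 7.5 buffer with MgCl2, EGTA, BRIJ-35, read by Z-lyte development.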

Chain of JAK1 (P23458 whole entry): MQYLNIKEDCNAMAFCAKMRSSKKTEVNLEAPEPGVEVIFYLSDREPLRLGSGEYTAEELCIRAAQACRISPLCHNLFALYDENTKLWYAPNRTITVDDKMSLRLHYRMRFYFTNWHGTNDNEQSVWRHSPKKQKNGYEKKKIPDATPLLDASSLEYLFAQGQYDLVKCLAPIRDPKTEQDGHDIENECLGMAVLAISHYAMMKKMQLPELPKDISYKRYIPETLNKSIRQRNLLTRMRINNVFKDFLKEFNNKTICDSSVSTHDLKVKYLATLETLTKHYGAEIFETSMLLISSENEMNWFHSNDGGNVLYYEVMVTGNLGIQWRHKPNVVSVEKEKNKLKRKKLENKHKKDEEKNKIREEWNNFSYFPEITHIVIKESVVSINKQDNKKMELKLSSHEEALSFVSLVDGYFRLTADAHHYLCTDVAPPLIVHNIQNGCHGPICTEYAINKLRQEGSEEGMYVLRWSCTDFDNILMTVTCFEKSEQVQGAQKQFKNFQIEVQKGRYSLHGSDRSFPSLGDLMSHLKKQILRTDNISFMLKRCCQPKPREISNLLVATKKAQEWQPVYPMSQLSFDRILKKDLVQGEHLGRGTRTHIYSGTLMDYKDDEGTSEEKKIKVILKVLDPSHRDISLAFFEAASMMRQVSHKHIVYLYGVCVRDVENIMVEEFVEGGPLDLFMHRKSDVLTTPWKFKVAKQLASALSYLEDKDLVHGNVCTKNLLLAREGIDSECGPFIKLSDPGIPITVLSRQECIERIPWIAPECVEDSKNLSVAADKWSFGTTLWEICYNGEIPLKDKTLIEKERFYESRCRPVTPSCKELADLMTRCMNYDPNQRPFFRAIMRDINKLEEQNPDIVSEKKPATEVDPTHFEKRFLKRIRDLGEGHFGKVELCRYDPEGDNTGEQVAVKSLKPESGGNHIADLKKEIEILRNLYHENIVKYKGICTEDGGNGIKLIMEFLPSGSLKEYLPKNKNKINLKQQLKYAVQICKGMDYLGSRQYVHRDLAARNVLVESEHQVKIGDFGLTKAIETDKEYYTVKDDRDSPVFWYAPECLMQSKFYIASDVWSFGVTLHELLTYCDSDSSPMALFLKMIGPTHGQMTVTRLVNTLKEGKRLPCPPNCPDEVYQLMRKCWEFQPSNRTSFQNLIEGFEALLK

CNC(=O)c1coc(-c2cnc3[nH]ccc3c2N[C@@H]2C[C@H](C)CN(C(=O)CC#N)C2)n1 [Example 31, 2-(4-(((3R,5S)-1-(2-cyanoacetyl)-5-methylpiperidin-3-yl)amino)-1H-pyrrolo[2,3-b]pyridin-5-yl)-N-methyloxazole-4-carboxamide]
IC50 (JAK1): ≤ 10 nM
IC50 [1]: ≤ 100 nM
IC50 [2]: > 1000 nM
IC50 [3]: ≤ 100 nM
IC50 (Tyk-2): ≤ 10 nM
IC50 (JAK2): ≤ 10 nM
